We go through one molecule from paper PMC10037499, “High-Throughput Screen Reveals the Structure–Activity Relationship of the Antimicrobial Lasso Peptide Ubonodin” (ACS Central Science, 2023).

The subject of one test is E. coli MC1061. As to the kind of experiment: Colony-forming units of E. coli MC1061 pUboABC after IPTG induction. To be noted: wild-type uboA induced, no uboD, three biological replicates. It counts as cell-based. How it is done: E. coli MC1061 pUboABC and E. coli MC1061 pUboBC cultures were grown. Aliquots of the cultures were sampled prior to and after induction with 10 μM IPTG and 100 μM IPTG, and 10-fold serial dilutions were plated. Colonies were counted 16 h after incubation. […]
fold serial dilutions were spotted onto LB plates supplemented with 100 μ g/m L ampicillin and 0.2% w/v glucose. Plates were incubated for 16 hours at 37 °C before imaging.
Colony- Forming Units of E. coli MC1061 pUboABC and E. coli MC1061 pUboBC pUboABC and pUboBC were transformed into electrocompetent E. coli MC1061, plated onto LB plates supplemented with 100 μ g/ m L ampicillin and 0.2% w/v glucose, and incubated at 37 °C for 16 hours. Single colonies were inoculated into LB media supplemented with 100 μ g/ m L ampicillin and 0.2% w/v glucose and shaken at 37 °C for 16 hours. These cultures were then sub-cultured to an OD600 of 0.02 into 50 mL of LB media supplemented with 100 μg/mL ampicillin in a 250 mL flask. Ten-fold serial dilutions of the culture were plated onto LB plates supplemented with 100 μ g/ m L ampicillin and 0.2% w/v glucose. […] All plates were incubated at 37 °C for 16 hours, after which the number of colonies was counted. […]
A small quantity of DNA was used to reduce the probability of two plasmids being transformed into the same cell. […]

Another test has as its system E. coli RNAP. To be noted: cited from earlier work.

SMILES strings stand for the structures. Where a SMILES comes first, the peptide text is derived from it.

Turning to `CC[C@H](C)[C@@H]1NC(=O)[C@H](CO)NC(=O)CNC(=O)[C@H](CC(=O)O)NC(=O)CNC(=O)CNC(=O)CC[C@@H](C(=O)N[C@@H](Cc2ccc(O)cc2)C(=O)N[C@@H](Cc2ccccc2)C(=O)N[C@@H](CC(N)=O)C(=O)N[C@@H](CCCNC(=N)N)C(=O)N2CCC[C@H]2C(=O)N[C@@H](CCSC)C(=O)N[C@@H](Cc2c[nH]cn2)C(=O)N[C@H](C(=O)N[C@@H](Cc2c[nH]cn2)C(=O)N[C@@H](CC(=O)O)C(=O)N[C@@H](Cc2c[nH]c3ccccc23)C(=O)N[C@@H](CCC(N)=O)C(=O)N[C@H](C(=O)N[C@@H](CCSC)C(=O)N[C@@H](CC(=O)O)C(=O)N[C@@H](CO)C(=O)NCC(=O)N[C@@H](Cc2ccc(O)cc2)C(=O)N[C@@H](Cc2ccc(O)cc2)C(=O)NCC(=O)O)[C@@H](C)CC)[C@@H](C)CC)NC(=O)[C@H](C)NC1=O` [WT, ubonodin] (HELM PEPTIDE1{G.G.D.G.S.I.A.E.Y.F.N.R.P.M.H.I.H.D.W.Q.I.M.D.S.G.Y.Y.G}$PEPTIDE1,PEPTIDE1,1:R1-8:R3$$$V2.0; C-terminus assumed), the “Reduction in viable cell concentration (CFU per mL) after IPTG induction” value in the test on E. coli MC1061 came to 3 log. For the same molecule, the “Inhibition of E. coli RNAP in vitro” value in the test on E. coli RNAP was “inhibits E. coli RNAP in vitro”.
